Assay results: patent publication US5858684A, “Method of screening calcium receptor-active molecules” (priority 1995, dated 1999)
Entries after “also recorded” stand apart in the source; their conditions may differ. Like-named read-outs stand apart in the source and are kept apart here. Values belong to the compound of their own block, whether it stands above or below them.

Key:
[1] = molecular target: T1, calcium receptor expressed from bovine parathyroid cell mRNA in Xenopus oocytes (Bos taurus, UniProt P35384); assay: Cl- current in Xenopus oocytes injected with bovine parathyroid mRNA; format: cell-based; settings: for oscillatory increases in Cl- current (words): bovine parathyroid mRNA
T1 sequence (P35384 20-1085): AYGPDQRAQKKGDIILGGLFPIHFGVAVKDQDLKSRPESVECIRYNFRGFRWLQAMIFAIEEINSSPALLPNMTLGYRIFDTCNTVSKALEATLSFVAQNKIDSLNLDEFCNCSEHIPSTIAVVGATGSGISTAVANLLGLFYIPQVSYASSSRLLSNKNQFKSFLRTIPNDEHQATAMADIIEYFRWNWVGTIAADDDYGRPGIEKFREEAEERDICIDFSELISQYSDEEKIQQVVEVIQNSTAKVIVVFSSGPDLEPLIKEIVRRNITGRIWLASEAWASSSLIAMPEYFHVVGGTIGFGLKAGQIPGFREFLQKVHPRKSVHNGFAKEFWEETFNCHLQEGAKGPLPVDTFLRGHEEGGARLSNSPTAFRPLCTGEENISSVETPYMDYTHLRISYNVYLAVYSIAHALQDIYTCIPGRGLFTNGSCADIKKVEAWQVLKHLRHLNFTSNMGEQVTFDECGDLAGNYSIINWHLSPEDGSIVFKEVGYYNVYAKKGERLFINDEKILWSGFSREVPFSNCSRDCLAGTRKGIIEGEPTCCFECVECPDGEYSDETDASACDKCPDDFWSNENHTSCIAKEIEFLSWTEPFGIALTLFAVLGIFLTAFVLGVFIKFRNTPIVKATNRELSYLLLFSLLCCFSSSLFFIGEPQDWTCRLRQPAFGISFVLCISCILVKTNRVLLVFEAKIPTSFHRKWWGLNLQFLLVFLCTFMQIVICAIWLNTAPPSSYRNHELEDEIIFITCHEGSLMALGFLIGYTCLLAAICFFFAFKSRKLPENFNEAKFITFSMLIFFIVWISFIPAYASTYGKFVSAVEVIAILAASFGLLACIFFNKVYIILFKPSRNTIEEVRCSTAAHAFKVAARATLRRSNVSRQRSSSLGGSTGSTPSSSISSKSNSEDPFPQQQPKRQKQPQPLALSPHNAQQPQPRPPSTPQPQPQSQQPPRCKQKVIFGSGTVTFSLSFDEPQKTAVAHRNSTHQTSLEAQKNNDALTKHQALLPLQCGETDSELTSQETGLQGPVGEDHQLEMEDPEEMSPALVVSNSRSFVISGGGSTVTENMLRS
Method: (§1) Glass capillary tubes (1 mm diameter) were pulled to a fine tip and manually broken to achieve a tip diameter of about 15 μmeters. A droplet of mRNA (1 ng/nl in diethylpyrocarbonate (DEPC)-treated water) was placed onto […]® and drawn into the capillary tube by suction. The capillary tube was then connected to a picospritzer (WPI Instruments) and the volume of the air-pulsed droplets adjusted to deliver 50 ng of mRNA (typically 50 nl). A 35-mm culture dish with a patch of nylon stocking fixed to the bottom was used to secure the oocytes during injection of mRNA into the vegetal pole. The injected oocytes were placed into a 35-mm culture dish containing MBS, 100 μg/ml penicillin and 100 μg/ml streptomycin and incubated at 18° C. for 3 days.
(§2) Following incubation, an oocyte was placed into a 100-μl plastic chamber and superfused with MBS at a flow rate of 0.5 ml/min using a peristaltic pump. Test molecules or inorganic polycations were added by rapidly moving the tubing into different buffers. Recording and current-passing electrodes were constructed from thin-wall capillary tubing pulled to a resistance of 1-3 Mohms and filled with 3M KCl. […] Currents were recorded directly onto a strip chart recorder.

[2] = tested on: osteoclast calcium receptor; assay: increase in [Ca2+]i in indo-1-loaded rat osteoclasts; format: cell-based
C-cell calcium receptor = molecular target: T2, C-cell calcium receptor (Rattus norvegicus, UniProt P48442); format: cell-based; design: Neoplastic C-cells derived from a rat medullary thyroid carcinoma (rMTC 6-23); host or cells: rMTC 6-23; settings: rMTC 6-23 cells, fura-2; inactive = no increase in cytosolic Ca2+ at 1-5 mM
T2 sequence (P48442 20-1079): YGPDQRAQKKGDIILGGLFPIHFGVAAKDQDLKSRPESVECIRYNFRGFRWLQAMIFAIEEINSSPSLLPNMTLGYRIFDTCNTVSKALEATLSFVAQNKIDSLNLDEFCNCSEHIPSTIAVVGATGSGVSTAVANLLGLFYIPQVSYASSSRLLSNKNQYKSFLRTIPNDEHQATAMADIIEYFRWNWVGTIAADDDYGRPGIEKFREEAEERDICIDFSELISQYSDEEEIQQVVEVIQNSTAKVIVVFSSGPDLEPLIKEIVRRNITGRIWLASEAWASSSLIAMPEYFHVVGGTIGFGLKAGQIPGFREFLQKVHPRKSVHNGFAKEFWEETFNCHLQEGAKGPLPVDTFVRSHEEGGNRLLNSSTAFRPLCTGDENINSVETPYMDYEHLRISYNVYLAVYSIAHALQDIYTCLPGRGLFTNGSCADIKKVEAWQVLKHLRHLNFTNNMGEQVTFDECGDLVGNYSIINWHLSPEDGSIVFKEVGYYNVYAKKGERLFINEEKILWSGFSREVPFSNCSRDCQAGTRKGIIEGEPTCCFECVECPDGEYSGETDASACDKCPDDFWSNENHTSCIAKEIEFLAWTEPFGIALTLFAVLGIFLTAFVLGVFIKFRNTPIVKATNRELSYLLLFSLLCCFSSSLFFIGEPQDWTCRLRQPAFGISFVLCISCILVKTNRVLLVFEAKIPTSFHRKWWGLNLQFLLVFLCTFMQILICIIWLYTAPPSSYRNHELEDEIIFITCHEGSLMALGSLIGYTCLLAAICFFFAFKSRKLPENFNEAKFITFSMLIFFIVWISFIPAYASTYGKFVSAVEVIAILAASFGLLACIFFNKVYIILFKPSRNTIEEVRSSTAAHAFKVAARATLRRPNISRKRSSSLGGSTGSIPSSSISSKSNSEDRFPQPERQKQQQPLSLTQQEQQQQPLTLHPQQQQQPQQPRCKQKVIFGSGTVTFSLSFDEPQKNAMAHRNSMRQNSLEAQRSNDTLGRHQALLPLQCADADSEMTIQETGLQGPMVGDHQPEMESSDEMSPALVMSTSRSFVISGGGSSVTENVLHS

[3] = tested on: increases in [Ca2+]i elicited by extracellular Ca2+ in bovine parathyroid cells; assay: block of extracellular Ca2+-induced [Ca2+]i increase / Ca2+ influx in bovine parathyroid cells; format: cell-based
net positive charge = format: physicochemical
[4] = tested on: parathyroid cell calcium receptor; format: cell-based; settings: for EC50: screened as in Example 1
[5] = molecular target: T3, calcium receptor expressed from human parathyroid cell mRNA in Xenopus oocytes (Homo sapiens, UniProt P41180); assay: response of Xenopus oocytes injected with human parathyroid mRNA; format: cell-based; settings: human parathyroid mRNA
T3 sequence (P41180 20-1078): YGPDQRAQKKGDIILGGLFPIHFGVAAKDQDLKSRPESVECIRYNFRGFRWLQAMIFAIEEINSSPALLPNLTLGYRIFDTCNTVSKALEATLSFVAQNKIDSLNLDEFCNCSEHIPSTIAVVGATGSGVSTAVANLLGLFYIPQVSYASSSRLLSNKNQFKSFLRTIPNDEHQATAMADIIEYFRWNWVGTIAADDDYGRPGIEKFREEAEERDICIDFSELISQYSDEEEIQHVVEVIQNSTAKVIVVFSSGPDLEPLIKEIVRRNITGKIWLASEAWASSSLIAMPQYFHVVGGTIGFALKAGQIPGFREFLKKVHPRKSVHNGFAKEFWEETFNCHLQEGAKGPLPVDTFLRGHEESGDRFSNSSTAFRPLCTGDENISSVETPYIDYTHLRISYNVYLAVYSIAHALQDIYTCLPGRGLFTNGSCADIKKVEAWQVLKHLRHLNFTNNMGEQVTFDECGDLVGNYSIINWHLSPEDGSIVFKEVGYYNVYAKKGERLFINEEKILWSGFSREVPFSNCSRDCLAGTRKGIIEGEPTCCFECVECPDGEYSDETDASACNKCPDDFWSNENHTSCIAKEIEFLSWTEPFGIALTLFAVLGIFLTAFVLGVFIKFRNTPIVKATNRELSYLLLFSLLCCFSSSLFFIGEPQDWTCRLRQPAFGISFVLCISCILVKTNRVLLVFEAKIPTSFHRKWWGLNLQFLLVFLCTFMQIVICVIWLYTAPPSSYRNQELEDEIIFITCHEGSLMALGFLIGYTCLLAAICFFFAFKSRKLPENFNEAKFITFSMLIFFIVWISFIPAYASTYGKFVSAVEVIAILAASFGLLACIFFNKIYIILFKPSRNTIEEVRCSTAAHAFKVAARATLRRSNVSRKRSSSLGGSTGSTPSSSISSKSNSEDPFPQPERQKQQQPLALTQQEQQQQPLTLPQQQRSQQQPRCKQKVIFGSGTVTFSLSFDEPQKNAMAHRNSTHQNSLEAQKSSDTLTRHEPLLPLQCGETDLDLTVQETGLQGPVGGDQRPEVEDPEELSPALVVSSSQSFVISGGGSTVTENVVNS
Method: Oocytes were injected with poly(A)^+ -enriched mRNA from human parathyroid tissue (hyperplastic glands from a case of secondary HPT).
as §1, §2
Using this screen allows one to test for an action directly on the calcium receptor. Oocytes expressing the calcium receptor also responded to several molecules active on intact parathyroid cells when screened as follows. […] This offers rather compelling evidence showing that these molecules act on the calcium receptor or on some other protein intimately associated with its function.

[6] = molecular target: T4, bovine parathyroid cell calcium receptor (BoPCaR 1) (Bos taurus, UniProt P35384); assay: Cl- current in Xenopus oocytes expressing BoPCaR 1; format: cell-based; settings: 1 mM extracellular Ca2+
T4 construct: Xenopus oocytes were injected with BoPCaR 1, the 5.3 Kb cDNA encoding a bovine parathyroid cell calcium receptor; expressed in transfected cells; host or cells: Xenopus laevis oocytes injected with cRNA/cDNA of BoPCaR 1
T4 sequence (P35384 20-1085): T1 sequence (P35384 20-1085)
Method: as §2
The techniques used to clone the parathyroid calcium receptor are briefly described in this example; a more complete description of the techniques is provided in preceding sections, which describe techniques which may be used to clone additional forms of the Ca^2+ -receptor from other cell types. Poly(A^+)-enriched mRNA was initially prepared from bovine parathyroid glands by extracting with guanidinium thiocyanate, centrifugation through CsCl and oligo(dT) cellulose chromatography. […] No such currents were elicited in control eggs injected with water.
These responses are mediated by the following series of biochemical events:
Xenopus oocytes were injected with BoPCaR 1, the 5.3 Kb cDNA encoding a bovine parathyroid cell calcium receptor as described in Example 25. After two to three days, Cl^- currents were examined in the oocytes using a two-electrode voltage clamp.
Xenopus oocytes were injected with BoPCaR 1 as described in Example 25. After two to three days, Cl^- currents were examined in the oocytes using two electrode voltage clamp.

[7] = tested on: PTH secretion from bovine parathyroid cells; assay: PTH secretion from bovine parathyroid cells; format: cell-based; settings: bovine parathyroid cells
[8] = molecular target: T5, human parathyroid cells (calcium receptor) (Homo sapiens, UniProt P41180); format: cell-based; settings: 1 μM
T5 sequence (P41180 20-1078): T3 sequence (P41180 20-1078)

Structure (SMILES): CC(NCCC(c1ccccc1)c1ccccc1)c1ccccc1 (racemic) [Fendiline, diphenylpropyl-α-phenethylamine]
concentration eliciting oscillatory increases in Cl- current [1]: 100 µM
oscillatory increases in Cl- current (words) [1]: evokes the mobilization of intracellular
oscillatory increases in Cl- current (words) ([1]; listed as fendiline): evokes oscillatory increases
EC50 ([2]; rat osteoclasts, indo-1, inactive = no increase in cytosolic Ca2+ at 1-5 mM, read-out: EC50 OSTEOCLAST (Table 6)): 200 µM
EC50 (C-cell calcium receptor): > 100 µM

Net (+) Charge (Table 1) (net positive charge): +2
Structure (SMILES): NCCCCCCCCCCCCN [1,12-diaminododecane (DADD), 1,12-diaminododecane]
effect of pretreatment on increases in [Ca2+]i elicited by extracellular Ca2+ ([3]; 100 to 1000 μM): depresses steady-state, but not transient increases
fall in [Ca2+]i ([3]; 100 to 1000 μM, buffer containing 2 mM CaCl2): prompt fall

EC50 ([4]; parathyroid cells, read-out: EC50 (Table 1)): 20 µM
Net (+) Charge (Table 1) (net positive charge): +6
concentration effective in oocytes [5]: 135 µM
Structure (SMILES): C1CNCCNCCNCCNCCNCCN1 [Hexacyclen, 1,4,7,10,13,16-hexaaza-cyclooctadecane]
relative potency (fold) ([4]; hexacyclen vs NPS 383): 7 fold
relative potency (fold) ([4]; hexacyclen vs […]): 25 fold

Structure (SMILES): NCCCNCCCCNCCCNCCCN(O)CCCNC(=O)Cc1c[nH]c2cccc(O)c12 [NPS 015]
EC50 C-CELL (Table 6) (C-cell calcium receptor): inactive

Structure (SMILES): NCCCNCCCCNCCCNCCCN(O)CCCNC(=O)Cc1c[nH]c2ccccc12 [NPS 017]
EC50 OSTEOCLAST (Table 6) ([2]; rat osteoclasts, indo-1, inactive = no increase in cytosolic Ca2+ at 1-5 mM): inactive
Cl- current [6]: oscillatory increases

Structure (SMILES): CC(Cc1ccccc1)NCCC(c1ccccc1)c1ccccc1 (centres unmarked) [Prenylamine]
increase in [Ca2+]i (words) ([2]; rat osteoclasts): mobilization

Structure (SMILES): NCCCCNCCCN [Spermidine, spermidine]
EC50 ([4]; read-out: EC50 (Table 3)): 2000 µM
increase in [Ca2+]i in osteoclasts, overall [2]: none of these caused any large increase
Net (+) Charge (Table 1) (net positive charge): +3

Structure (SMILES): NCCCNCCCCNCCCN [Spermine, spermine]
inhibition of PTH secretion [7]: inhibits PTH secretion; also recorded: inhibited PTH secretion to the same extent

Structure (SMILES): CCN(CC)CCCCCCCCOC(=O)c1cc(OC)c(OC)c(OC)c1 [TMB-8]
block of influx of extracellular Ca2+ ([3]; 100 μM): blocked the influx of extracellular
potentiation of mobilization of intracellular Ca2+ elicited by extracellular divalent cations ([4]; 100 μM): potentiated the mobilization of intracellular; also recorded: potentiated transient increases
change in [Ca2+]i ([4]; 100 μM, 0.5 mM extracellular Ca2+): evoked no change
increase in [Ca2+]i at intermediate extracellular Ca2+ ([4]; 100 μM, 1-[…] extracellular Ca2+): small, but robust increase

effect on Mg2+-elicited sustained [Ca2+]i increase [8]: not affected
Structure (SMILES): COCCOC(=O)C1=C(C)NC(C)=C(C(=O)OC(C)C)C1c1cccc([N+](=O)[O-])c1 (centres unmarked) [nimodipine]
